Consider one compound from patent publication US11912794B2, “Modulation of structured polypeptide specificity” (BicycleRD Limited, priority 2011, dated 2024).

In test [1] the target is Human thrombin (Homo sapiens, UniProt P00734). Conditions: highest concentration tested (10 μM); Heinis et al. 2009; cited from earlier work.
Test [2] addresses T1, rat plasma Kallikrein (Rattus norvegicus, UniProt P14272).
T1 construct: polyhistidine tag with proTEV cleavage site (pro-peptide) (N, cleaved yes); made in house; host or cells: HEK-293 (suspension-adapted)
Particulars: highest concentration tested (10 μM); Heinis et al. 2009; cited from earlier work.

In test [3] the target is T2, human plasma Kallikrein (Homo sapiens, UniProt P03952).
T2 construct: purchased Stratech, UK
The experiment in a line: Functional enzyme inhibition assay, fluorogenic substrate Z-PheArg-AMC. Conditions: Ki Human plasma kalikrein (hPK), Table 1; means of at least two measurements. Type of test: biochemical.

In test [4] the target is Monkey plasma Kallikrein (mPK) (Macaca mulatta, UniProt A0A1D5Q7U7). The experiment in a line: Target specificity, Ki for orthologous protease. Type of test: biochemical.
In test [5] the target is Human factor XIa (hfXIa) (Homo sapiens, UniProt P03951). Conditions: highest concentration tested (10 μM); Heinis et al. 2009; cited from earlier work.

Numbered stars: 1 amine (or outer) side, 2 acyl side, 3 side chain; on linkers, the order of the positions; unused ones are H or OH. Bridge positions count the residues as written; N and C are the ends. Peptide text beside a SMILES is read from it. TBMB = c1c(C[*:1])cc(C[*:3])cc1C[*:2]

Sequence of Monkey plasma Kallikrein (mPK) (A0A1D5Q7U7 391-638): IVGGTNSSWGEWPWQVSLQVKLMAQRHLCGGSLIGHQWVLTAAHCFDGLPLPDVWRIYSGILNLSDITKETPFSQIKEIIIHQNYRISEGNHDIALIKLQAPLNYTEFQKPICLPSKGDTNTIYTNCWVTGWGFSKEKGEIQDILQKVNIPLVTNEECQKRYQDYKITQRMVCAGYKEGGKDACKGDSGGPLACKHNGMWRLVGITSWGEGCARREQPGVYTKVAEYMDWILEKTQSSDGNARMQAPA
T1 sequence (P14272 391-638 limits assumed): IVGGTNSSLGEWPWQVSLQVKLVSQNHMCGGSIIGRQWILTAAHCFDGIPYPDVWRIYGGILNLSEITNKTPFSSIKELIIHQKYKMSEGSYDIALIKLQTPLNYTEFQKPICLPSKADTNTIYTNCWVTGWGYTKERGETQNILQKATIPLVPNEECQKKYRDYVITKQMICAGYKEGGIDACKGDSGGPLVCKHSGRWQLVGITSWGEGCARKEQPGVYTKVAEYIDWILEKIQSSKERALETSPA
T2 sequence (P03952 20-638): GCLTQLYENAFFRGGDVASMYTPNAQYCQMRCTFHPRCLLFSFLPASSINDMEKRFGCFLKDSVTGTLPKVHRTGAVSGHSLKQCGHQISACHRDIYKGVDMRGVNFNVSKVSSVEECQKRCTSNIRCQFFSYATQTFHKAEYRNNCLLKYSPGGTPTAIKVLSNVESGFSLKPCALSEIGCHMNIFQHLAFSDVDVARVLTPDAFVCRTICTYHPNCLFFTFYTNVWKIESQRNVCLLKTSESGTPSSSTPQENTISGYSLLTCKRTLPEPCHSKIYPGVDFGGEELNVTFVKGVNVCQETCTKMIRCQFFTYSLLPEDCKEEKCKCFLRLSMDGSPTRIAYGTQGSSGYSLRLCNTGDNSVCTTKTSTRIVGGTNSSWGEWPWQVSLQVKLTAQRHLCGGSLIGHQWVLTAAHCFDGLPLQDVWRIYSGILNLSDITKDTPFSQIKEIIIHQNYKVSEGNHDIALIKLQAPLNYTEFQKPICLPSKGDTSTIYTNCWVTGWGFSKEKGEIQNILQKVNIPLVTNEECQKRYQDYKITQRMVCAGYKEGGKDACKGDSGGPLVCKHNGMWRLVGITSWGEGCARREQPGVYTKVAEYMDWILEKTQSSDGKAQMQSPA
Sequence of Human factor XIa (hfXIa) (P03951 388-625 limits assumed): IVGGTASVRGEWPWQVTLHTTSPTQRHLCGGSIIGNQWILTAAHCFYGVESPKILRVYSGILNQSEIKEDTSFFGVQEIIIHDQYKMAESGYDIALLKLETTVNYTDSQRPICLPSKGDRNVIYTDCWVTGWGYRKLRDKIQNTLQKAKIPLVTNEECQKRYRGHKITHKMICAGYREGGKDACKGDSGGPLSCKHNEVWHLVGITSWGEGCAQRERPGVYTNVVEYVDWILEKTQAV
Sequence of Human factor XIa (hfXIa) (P03951 19-387 partner limits assumed): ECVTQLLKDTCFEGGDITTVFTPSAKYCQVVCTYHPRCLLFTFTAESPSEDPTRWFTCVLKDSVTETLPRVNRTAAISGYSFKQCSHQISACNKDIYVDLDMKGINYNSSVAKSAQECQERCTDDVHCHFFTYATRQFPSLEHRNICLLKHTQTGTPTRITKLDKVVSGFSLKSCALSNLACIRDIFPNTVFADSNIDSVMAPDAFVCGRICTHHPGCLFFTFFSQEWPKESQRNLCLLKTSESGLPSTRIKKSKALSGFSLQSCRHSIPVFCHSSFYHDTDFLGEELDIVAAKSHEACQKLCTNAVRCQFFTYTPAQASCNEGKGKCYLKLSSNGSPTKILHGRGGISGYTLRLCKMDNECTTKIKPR

In general, Ki refers to the dissociation constant of the complex between target and ligand, obtained from inhibition or displacement. On to `CC(C)C[C@@H]1NC(=O)[C@H](C)NC(=O)[C@H](CCC(=O)O)NC(=O)[C@H](CC(=O)O)NC(=O)[C@H](C)NC(=O)[C@@H]2CCCN2C(=O)[C@@H]2CSCc3cc(cc(c3)CSC[C@@H](C(=O)NCC(N)=O)NC1=O)CSC[C@H](NC(=O)[C@H](C)N)C(=O)N[C@@H](CO)C(=O)N[C@@H](CC(=O)O)C(=O)N[C@@H](CCCNC(=N)N)C(=O)N[C@@H](Cc1ccccc1)C(=O)N[C@@H](CCCNC(=N)N)C(=O)N[C@@H](CC(N)=O)C(=O)N2` [PK15] (H-ACSDRFRNCPADEALCG-NH2; linker 2-9-16 via TBMB), for which the inhibition of thrombin entry in test [1] is on record as “did not inhibit”. Besides, in test [2], the “inhibition of rat PK” value is listed as “did not inhibit”. For the same compound, the Ki in test [3] amounted to 3 nM; in test [4], 4 nM. Also, the “inhibition of human factor XIa (hfXIa)” value in test [5] is listed as “did not inhibit”.
